Measured values published in patent publication US6818637B2, “Polyhydroxypyrazine derivatives, their preparation and the pharmaceutical compositions which comprise them” (Aventis Pharma SA, priority 1999, dated 2004).

Tested on: hyperglycemic response to the oral administration of glucose
Assay: Inhibition of the hyperglycemic response to oral glucose in the normoglycemic mouse
Type: in vivo, Swiss albino mice
Settings: mice, administration at 3 mg/kg; reference 2-(1,2,3,4-tetrahydroxybutyl)-5-(2′,3′,4′-trihydroxybutyl)]pyrazine
Method: The hypoglycemic activity of the products of formula (I) was determined with respect to the hyperglycemic response to the oral administration of glucose in the normoglycemic mouse, according to the protocol described in Example 3. Swiss albino mice weighing between 22 and 26 g are left without nourishment for 2 hours. At the end of this period, the glycemia is measured and, immediately after, a dose of glucose (2 g/kg) is administered orally. Thirty minutes later, the glycemia is once again measured. The mice which respond by a hyperglycemia greater than 170 mg/dl are selected and used to detect the hypoglycemic activity of the products according to the invention. The mice thus chosen are divided into groups of at least 10 animals. Several groups receive doses of 3 to 50 mg/kg of product in a vehicle, such as water or a mixture of methylcellulose/tween and water, once daily by gastric intubation. The treatment lasts 4 days. On the 4th day, after the final treatment, the animals receive a dose of glucose (2 g/kg) and the glycemia is measured 20 to 40 minutes later. The percentage of inhibition of the hyperglycemic response to the administration of glucose is calculated with respect to the response measured in the group treated with the vehicle.

For O=C(OC[C@@H](O)[C@@H](O)[C@H](O)c1cnc(C[C@H](O)[C@H](O)COC(=O)C2CCCCC2)cn1)C1CCCCC1 [Example 1, 4,4′-O,O-Dicyclohexyloyl-2-[(1R,2S,3R)(1,2,3,4-tetrahydroxylbutyl)]-5-[(2′S,3′R)(2′,3′,4′-trihydroxybutyl)]pyrazine], the “relative activity with respect to the reference product” value was 149%.
